According to PMC7703437, “In Vitro Hepatic Metabolism of Curcumin Diethyl Disuccinate by Liver S9 from Different Animal Species” (Frontiers in Pharmacology, 2020):

Legend:
[1] = test system: human LS9 (HLS9; pooled); experiment: In vitro metabolism profiling of CDD in human liver S9 (1 mg/ml); type: in vitro ADME
Method: (§1) The metabolism profiles of CDD were investigated against HLS9, MLS9, DLS9, and RLS9. A stock solution of CDD was prepared at 150 µM in 50% acetonitrile in water before use. The metabolism study was initiated by spiking 735 µl of preincubated LS9 with 15 µl of CDD stock solution, and the mixture was subsequently incubated at 37°C. The final concentrations of CDD and LS9 were 3 μM and 1 mg/ml, respectively. A 50-µl aliquot from the mixture was collected at 0.5, 1, 2, 3, 4, 5, 10, 15, 30, 45, 60, 90, and 120 min and immediately mixed with 100 µl of ice-cold acetonitrile containing 0.45 µM of internal standard DMC to terminate the metabolic reaction. […] The sample at the initial time point (0 min) was prepared as the other samples, except that heat-inactivated HLS9, MLS9, DLS9, and RLS9 (80°C for 20 min; 1 mg/ml protein) were used.
(§2) The UHPLC system consisted of an Agilent series 1290 quaternary pump with an online degasser, autosampler, column oven, and diode array detector. The mobile phase was composed of (A) 0.1% (v/v) formic acid in acetonitrile and (B) 0.1% (v/v) formic acid in water. Each solution was filtered through a nylon filter (pore size, 0.22 µm; MS® Membrane Filters; Membrane Solutions, United States) before use. The mobile phase flow rate was kept at 1.2 ml/min in a gradient mode using the following elution program: 0–3.0 min, initial A-B (40:60, v/v); 4.5–7.0 min, isocratic elution A-B [50:50, (v/v); 8.5–11.0 min, isocratic elution A-B (60:40, v/v); and 12.0–17.0 min, isocratic elution A-B (40:60, v/v)]. CDD, curcumin, and MSCUR in the supernatant were partitioned using a C8 column (4.6 mm × 50 mm, 2.7 µm; HALO, Advanced Materials Technology, United States) with reference to DMC. The detection wavelength was set at 400 nm (λ max(CDD) = 400 nm, λ max(curcumin) = 427 nm, λ max(MSCUR) = 418 nm, and λ max(DMC) = 421 nm). The column was maintained at 35°C throughout the run, and the supernatant injection volume was set at 20 µl.
(§3) The concentrations of CDD, curcumin, and MSCUR in the supernatant were determined from the standard plots, which were prepared by spiking individual working solutions of the compounds to heat-inactivated HLS9, MLS9, DLS9, and RLS9 ([Alcorn et al., 2007]; [Montoro-Garcia et al., 2009]; [Singh et al., 2010]). These working standards were extracted with 100 µl of ice-cold acetonitrile containing 0.45 µM of DMC and then 120 μl of the supernatant was diluted with 40 μl of water prior to the UHPLC analysis. The peak area ratios of CDD, curcumin, and MSCUR to the internal standard were computed against linear concentration ranges of 0.025–4.5 µM CDD, 0.025–4.5 µM curcumin, and 0.0125–0.75 µM MSCUR, respectively, with the coefficient of determination (r^2) values greater than 0.99.
(§4) The percent content of CDD and the metabolites formed upon its incubation with LS9, namely, curcumin and MSCUR, was plotted against incubation time.
(§5) The following equations were adopted to describe the changes in CDD and MSCUR content over time (t): A = A0e^−k1t (2) B= k1A0/k2−k1(e^−k1t−e^−k2t), (3) where A0 is the CDD concentration at time 0, k 1 is the degradation rate constant of CDD, and k 2 is the degradation rate constant of MSCUR. k 1 and k 2 were determined by using Eqs. 2 and 3, respectively, with nonlinear regression analysis using the SOLVER function of Microsoft Excel for Office 365 MSO (16.0.12527.20986) ([Brown, 2001]). The half-life (t 1/2) was calculated using Eq. 4: t1/2=0.693/k (4)
(§6) The in vitro intrinsic clearance (CLint,in vitro) of CDD and MSCUR in LS9 was calculated using Eq. 5: CLint, in vitro= k × [V]incubation(ml)/[P]incubation(mg protein), (5) where [V]incubation is the incubation volume in ml, and [P]incubation is the amount of LS9. […]

[2] = as above; type: in vitro ADME; conditions: pooled liver S9; human LS9 1 mg/ml; read-out: t 1/2 (CDD)
Method: as §1, §2, §3, §4, §5, §6

[3] = test system: LS9 from all tested species (HLS9, MLS9, DLS9, RLS9); experiment: In vitro metabolism profiling of CDD, statements for LS9 from all tested species; type: in vitro ADME, human, monkey, dog, rat; conditions: within the first 15 min of incubation, LS9 1 mg/ml from all tested species, CDD 3 µM
Method: as §1, §2
(§7) The concentrations of CDD, curcumin, and MSCUR in the supernatant were determined from the standard plots, which were prepared by spiking individual working solutions of the compounds to heat-inactivated HLS9, MLS9, DLS9, and RLS9 ([Alcorn et al., 2007]; [Montoro-Garcia et al., 2009]; [Singh et al., 2010]). […]
as §5, with “2 and 3, respectively, with nonlinear regression analysis using the SOLVER function of Microsoft Excel for Office 365 MSO (16.0.12527.20986) ([Brown, 2001]).” left out

[4] = as above; type: in vitro ADME, human, monkey, dog, rat; conditions: beagle (dog); Sprague-Dawley (rat), human, monkey, dog, rat, liver S9 (LS9); all LS9s; read-out: t 1/2 of CDD
Method: as §1, §2, §7
as §5, with “2 and 3, respectively, with nonlinear regression analysis using the SOLVER function of Microsoft Excel for Office 365 MSO (16.0.12527.20986) ([Brown, 2001]).” left out

[5] = test system: rat LS9 (RLS9; Sprague–Dawley); experiment: In vitro metabolism profiling of CDD in rat liver S9 (1 mg/ml); type: in vitro ADME
Method: as §1, §2, §3, §4, §5, §6

[6] = as above; type: in vitro ADME, rat (Sprague–Dawley); conditions: Sprague-Dawley, liver S9; rat LS9 1 mg/ml; read-out: t 1/2 (CDD)
Method: as §1, §2, §3, §4, §5, §6

- CLint, in vitro(CDD) in HLS9 higher than in DLS9 ([1]; HLS9 vs DLS9): 1.8 fold
- CLint, in vitro(CDD) in HLS9 higher than in MLS9 ([1]; HLS9 vs MLS9): 1.9 fold
- CLint, in vitro(CDD) in HLS9 higher than in RLS9 ([1]; HLS9 vs RLS9): 2.2 fold
- CLint, in vitro(CDD) ([1]; human LS9): 1.51 ± 0.22 ml min^−1 mg protein^−1
- k 1 (CDD) ([1]; human LS9 1 mg/ml, CDD 3 µM, 37°C): 1.51 ± 0.22 min⁻¹
- CLint, in vivo(CDD) ([1]; human, scaled from CLint,in vitro with physiologically based scaling factors): 282.18 ± 41.74 L/h/kg
- CLint, in vivo total ([1]; human, sum of CLint,in vivo(CDD) and CLint,in vivo(MSCUR)): 2,533.38 ± 124.30 L h^−1 kg^−1
- CLH (predicted hepatic clearance) ([1]; human, well-stirred model, QH 20 ml min^−1 kg^−1, fup 0.0594): 1.19 ± 4.61 × 10^–4 L h^−1 kg^−1
- half-life [2]: 0.46 ± 0.06 min
- CDD hydrolyzed [3]: more than 95%
- half-life at 3 µM [4]: < 1.04 min
- CLint, in vitro(CDD) ([5]; rat LS9): 0.68 ± 0.13 ml min^−1 mg protein^−1
- k 1 (CDD) ([5]; rat LS9 1 mg/ml, CDD 3 µM, 37°C): 0.68 ± 0.13 min⁻¹
- CLint, in vivo(CDD) ([5]; rat, scaled from CLint,in vitro with physiologically based scaling factors): 197.51 ± 37.52 L/h/kg
- CLint, in vivo total ([5]; rat, sum of CLint,in vivo(CDD) and CLint,in vivo(MSCUR)): 3,002.88 ± 180.63 L h^−1 kg^−1
- CLH (predicted hepatic clearance) ([5]; rat, well-stirred model, QH 70 ml min^−1 kg^−1, fup 0.0594): 4.10 ± 5.77 × 10^–3 L h^−1 kg^−1
- half-life at 3 µM [6]: 1.04 ± 0.18 min
SMILES: CCOC(=O)CCC(=O)Oc1ccc(/C=C/C(=O)/C=C(O)/C=C/c2ccc(OC(=O)CCC(=O)OCC)c(OC)c2)cc1OC [CDD, curcumin diethyl disuccinate]
